Laboratory results published in US10369130B2, “Antibacterial compounds” (AZIENDE CHIMICHE RIUNITE ANGELINI FRANCESCO A.C.R.A.F. …, priority 2014, dated 2019).
Structures can show the parent of a compound that is named as a salt.

Columns and labels:
Type in all cases: biochemical
Conditions in all cases: single concentration (200, 100 or 50 μM), in duplicate, versus the positive control (vehicle)
[1] = target: T1, Topoisomerase IV (Staphylococcus aureus, UniProt P0C1S7+P0C1U9); experiment: Topoisomerase IV decatenation assay (S. aureus)
T1 construct: purchased Inspiralis, UK
T1 sequence (P0C1S7 whole entry): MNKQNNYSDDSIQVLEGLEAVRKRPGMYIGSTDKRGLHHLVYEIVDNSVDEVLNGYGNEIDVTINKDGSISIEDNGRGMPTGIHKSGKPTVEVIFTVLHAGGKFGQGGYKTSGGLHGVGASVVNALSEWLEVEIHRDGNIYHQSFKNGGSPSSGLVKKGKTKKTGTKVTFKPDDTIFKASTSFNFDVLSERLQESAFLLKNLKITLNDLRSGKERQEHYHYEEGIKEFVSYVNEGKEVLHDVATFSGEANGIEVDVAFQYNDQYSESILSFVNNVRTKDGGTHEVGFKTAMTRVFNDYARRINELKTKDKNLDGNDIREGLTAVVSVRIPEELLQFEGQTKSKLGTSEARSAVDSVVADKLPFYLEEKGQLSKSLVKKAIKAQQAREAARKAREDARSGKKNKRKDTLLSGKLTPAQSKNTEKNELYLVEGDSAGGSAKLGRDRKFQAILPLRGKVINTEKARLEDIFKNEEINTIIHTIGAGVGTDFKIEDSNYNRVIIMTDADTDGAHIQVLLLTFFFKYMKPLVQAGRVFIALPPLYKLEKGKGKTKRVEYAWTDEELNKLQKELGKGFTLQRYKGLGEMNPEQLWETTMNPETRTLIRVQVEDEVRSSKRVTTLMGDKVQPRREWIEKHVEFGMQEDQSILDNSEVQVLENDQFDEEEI
T1 sequence (P0C1U9 whole entry): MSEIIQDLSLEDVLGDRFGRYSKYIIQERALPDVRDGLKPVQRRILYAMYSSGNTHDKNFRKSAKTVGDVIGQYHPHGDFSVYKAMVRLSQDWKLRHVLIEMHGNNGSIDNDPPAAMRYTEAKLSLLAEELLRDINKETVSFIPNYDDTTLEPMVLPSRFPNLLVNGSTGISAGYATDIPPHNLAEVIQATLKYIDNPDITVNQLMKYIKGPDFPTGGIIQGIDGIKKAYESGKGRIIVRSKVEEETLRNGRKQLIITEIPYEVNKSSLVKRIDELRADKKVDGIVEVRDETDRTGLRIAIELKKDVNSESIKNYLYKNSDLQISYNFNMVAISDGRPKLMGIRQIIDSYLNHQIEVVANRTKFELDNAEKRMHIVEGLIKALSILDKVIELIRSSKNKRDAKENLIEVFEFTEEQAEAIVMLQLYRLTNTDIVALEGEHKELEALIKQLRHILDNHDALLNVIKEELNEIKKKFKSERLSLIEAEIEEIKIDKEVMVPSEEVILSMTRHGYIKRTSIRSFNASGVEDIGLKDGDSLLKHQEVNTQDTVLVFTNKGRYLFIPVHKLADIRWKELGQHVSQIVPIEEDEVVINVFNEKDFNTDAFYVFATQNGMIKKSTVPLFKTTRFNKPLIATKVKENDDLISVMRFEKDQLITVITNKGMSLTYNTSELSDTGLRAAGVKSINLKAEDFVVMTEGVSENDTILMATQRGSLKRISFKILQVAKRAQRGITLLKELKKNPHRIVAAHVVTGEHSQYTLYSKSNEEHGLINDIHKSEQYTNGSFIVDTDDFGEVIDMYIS
Experimental: (§1) The above compounds were tested for the inhibition of the enzyme DNA gyrase in a gyrase supercoiling assay and for the inhibition of the enzyme topoisomerase IV in a decatenation assay, in both Gram positive and Gram negative bacteria, according to the following methods.
(§2) Both the assays were carried out according to a set-up method modified from the article to Blanche F, et al. “Differential Behaviors of Staphylococcus aureus and Escherichia coli Type II DNA Topoisomerases”, Antimicrob.
(§3) The compounds were screened at single concentration (200, 100 or 50 μM), in duplicate.
(§4) Ciprofloxacin and novobiocin were used as reference compounds, at single concentration of 200 and 50 μM, respectively.
(§5) Topoisomerase IV Decatenation Assay
(§6) S. aureus and E. coli Topoisomerase IV decatenation kits (Inspiralis, UK) were used. A master mix with a total volume sufficient for the number of reactions to perform was prepared with the following reagents: 5× assay buffer (50 mM HEPES-KOH (pH 7.6), 100 mM potassium glutamate, 10 mM magnesium acetate, 10 mM DTT, 1 mM ATP, 50 μg/ml albumin), kDNA substrate (200 ng/reaction), RNase-DNase free water. Aliquots of this mix were dispensed in each tube, then 10× compound stock solutions or vehicle control (DMSO), were added in each reaction tube.
(§7) Reaction was started with Topoisomerase IV enzyme (0.5 U/reaction) addition.
(§8) A sample added with an equal volume of dilution buffer was used as negative control (without enzyme).
(§9) The reaction tubes were gentle vortexed and incubated 30 minutes at 37° C. Each reaction was stopped by adding 30 μl of Stop Buffer and 30 μl of chloroform/isoamyl alcohol (24/1), briefly vortexed for 5-10 seconds and centrifuged at 20000×g for 2 minutes. Samples taken from the upper phase were loaded into 1% agarose gel and subjected to electrophoresis for 1 hour at 80V constant voltage in TAE (40 mM Tris-acetate, 2 mM EDTA).
(§10) Data acquisition and analysis. Due to the high molecular mass, kDNA could not enter an agarose gel under normal electrophoresis conditions, but remained in the wells. In the presence of Topo IV topoisomerase mini-circles (2.5 Kb) were released from kDNA by decatenation and were quickly and easily resolved in the gel at relatively high voltages.
(§11) Bands were visualized by ethidium bromide staining (dil 1:20000) for 30 minutes followed by destaining in distilled water for 10 minutes.
(§12) For single concentration screening assay, in order to evaluate the compounds activity on the enzymes, the bands of decatenated DNAs in the gel were photographed by a digital imaging system ImageQuant LAS 4000 (GE Healthcare) according to manufacturer's instructions.
(§13) The fluorescent intensity of each band was analyzed by ImageQuant TL software and it was expressed as volume (volume of the uncalibrated quantity of material in the image feature after subtraction of the background intensity by using rolling ball method).
(§14) Each band intensity was compared, as percentage, to vehicle sample band intensity, which served as positive control, on the same gel.
(§15) Inhibitory activity was expressed as percent of inhibition versus the positive control.

[2] = target: T2, Topoisomerase IV (Escherichia coli, UniProt P0AFI2+P20083); experiment: Topoisomerase IV decatenation assay (E. coli)
T2 construct: purchased Inspiralis, UK
T2 sequence (P20083 whole entry): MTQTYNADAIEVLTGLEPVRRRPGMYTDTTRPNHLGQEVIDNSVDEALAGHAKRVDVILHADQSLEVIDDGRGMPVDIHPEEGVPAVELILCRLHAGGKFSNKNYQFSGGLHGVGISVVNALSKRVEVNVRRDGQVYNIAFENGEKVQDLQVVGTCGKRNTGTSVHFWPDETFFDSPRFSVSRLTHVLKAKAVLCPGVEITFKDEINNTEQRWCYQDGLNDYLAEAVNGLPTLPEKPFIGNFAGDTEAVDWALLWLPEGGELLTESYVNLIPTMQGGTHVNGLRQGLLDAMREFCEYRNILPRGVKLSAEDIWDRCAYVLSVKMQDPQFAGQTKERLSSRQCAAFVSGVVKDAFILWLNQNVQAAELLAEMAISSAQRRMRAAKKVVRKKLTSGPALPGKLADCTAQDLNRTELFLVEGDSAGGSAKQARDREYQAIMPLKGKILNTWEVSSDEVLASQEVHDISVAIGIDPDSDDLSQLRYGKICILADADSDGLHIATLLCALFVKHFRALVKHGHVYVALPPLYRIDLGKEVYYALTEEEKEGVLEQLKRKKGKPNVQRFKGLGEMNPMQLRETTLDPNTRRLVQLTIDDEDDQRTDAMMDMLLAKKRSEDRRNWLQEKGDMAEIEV
T2 sequence (P0AFI2 whole entry): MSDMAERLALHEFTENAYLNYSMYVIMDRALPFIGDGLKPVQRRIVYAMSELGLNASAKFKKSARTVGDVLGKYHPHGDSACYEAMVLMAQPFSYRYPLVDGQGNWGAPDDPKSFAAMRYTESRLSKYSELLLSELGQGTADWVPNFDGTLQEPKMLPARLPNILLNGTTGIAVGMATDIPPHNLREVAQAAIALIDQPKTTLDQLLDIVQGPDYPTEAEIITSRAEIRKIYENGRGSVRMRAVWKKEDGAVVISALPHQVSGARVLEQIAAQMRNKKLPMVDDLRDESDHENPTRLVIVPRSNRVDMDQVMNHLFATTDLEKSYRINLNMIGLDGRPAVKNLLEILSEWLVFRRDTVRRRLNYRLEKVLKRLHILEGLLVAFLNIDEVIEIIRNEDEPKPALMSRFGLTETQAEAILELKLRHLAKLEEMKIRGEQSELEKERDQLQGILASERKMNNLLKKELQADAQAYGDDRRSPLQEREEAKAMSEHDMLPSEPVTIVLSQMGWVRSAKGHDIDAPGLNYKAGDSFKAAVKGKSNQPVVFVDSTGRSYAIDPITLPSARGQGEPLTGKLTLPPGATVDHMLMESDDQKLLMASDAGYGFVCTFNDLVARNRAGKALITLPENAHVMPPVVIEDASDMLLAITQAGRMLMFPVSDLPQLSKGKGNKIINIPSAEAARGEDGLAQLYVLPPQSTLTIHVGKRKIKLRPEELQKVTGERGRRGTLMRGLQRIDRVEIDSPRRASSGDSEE
Experimental: as §1, §2, §3, §4, §5, §6, §7, §8, §9, §10, §11, §12, §13, §14, §15

[3] = target: T3, DNA gyrase (Escherichia coli, UniProt P0AES4+P0AES6); experiment: DNA gyrase supercoiling assay (E. coli)
T3 construct: purchased Inspiralis, UK
Experimental: as §1, §2, §3, §4
(§16) DNA Gyrase Supercoiling Assay.
(§17) Reagents from S. aureus and E. coli Gyrase Supercoiling Assay kits (Inspiralis, UK) were used. A master mix with a total volume sufficient for the number of reactions to perform was prepared with the following reagents: 5× assay buffer, relaxed pBR322 substrate (0.5 μg/reaction), RNase-DNase free water. Aliquotes of this mix were dispensed in each tube, then 10× compound stock solutions or vehicle control (DMSO), were added to each reaction tube.
(§18) Reaction was started with E. Coli (2 U/reaction) or S. aureus (1 U/reaction) gyrase enzyme addition.
as §8
(§19) The reaction tubes were gentle vortexed and incubated 30 minutes at 37° C. Each reaction was stopped by adding 30 μl of Stop Buffer and 30 μl chloroform/isoamyl alcohol (24/1), briefly vortexed for 5-10 seconds and centrifuged at 20000×g for 2 minutes. Samples were loaded onto 1% agarose gel and subjected to electrophoresis for 1 hour at 80V constant voltage in TAE (40 mM Tris-acetate, 2 mM EDTA).
(§20) Data acquisition and analysis. Treatment of relaxed pBR322 with DNA gyrase converted the relaxed topoisomers (DNAs of different linking number) to the supercoiled form of the plasmid, which migrates faster on an agarose gel. An upper band might also be visible, which consists of open-circular (nicked) DNA which is present in the relaxed substrate but co-migrates with some of the relaxed topoisomers.
as §11
(§21) In order to evaluate the compounds activity on the enzyme, the bands of supercoiled DNAs in the gel were photographed by a digital imaging system ImageQuant LAS 4000 (GE Healthcare) according to manufacturer's instructions.
(§22) The fluorescent intensity of each band was analysed by ImageQuant TL software and it was expressed as volume (volume of the uncalibrated quantity of material in the image feature after subtraction of the background intensity by using rolling ball method).
as §14, §15

[4] = target: T4, DNA gyrase (Staphylococcus aureus, UniProt P0A0K8+P20831); experiment: DNA gyrase supercoiling assay (S. aureus)
T4 construct: purchased Inspiralis, UK
T4 sequence (P20831 whole entry): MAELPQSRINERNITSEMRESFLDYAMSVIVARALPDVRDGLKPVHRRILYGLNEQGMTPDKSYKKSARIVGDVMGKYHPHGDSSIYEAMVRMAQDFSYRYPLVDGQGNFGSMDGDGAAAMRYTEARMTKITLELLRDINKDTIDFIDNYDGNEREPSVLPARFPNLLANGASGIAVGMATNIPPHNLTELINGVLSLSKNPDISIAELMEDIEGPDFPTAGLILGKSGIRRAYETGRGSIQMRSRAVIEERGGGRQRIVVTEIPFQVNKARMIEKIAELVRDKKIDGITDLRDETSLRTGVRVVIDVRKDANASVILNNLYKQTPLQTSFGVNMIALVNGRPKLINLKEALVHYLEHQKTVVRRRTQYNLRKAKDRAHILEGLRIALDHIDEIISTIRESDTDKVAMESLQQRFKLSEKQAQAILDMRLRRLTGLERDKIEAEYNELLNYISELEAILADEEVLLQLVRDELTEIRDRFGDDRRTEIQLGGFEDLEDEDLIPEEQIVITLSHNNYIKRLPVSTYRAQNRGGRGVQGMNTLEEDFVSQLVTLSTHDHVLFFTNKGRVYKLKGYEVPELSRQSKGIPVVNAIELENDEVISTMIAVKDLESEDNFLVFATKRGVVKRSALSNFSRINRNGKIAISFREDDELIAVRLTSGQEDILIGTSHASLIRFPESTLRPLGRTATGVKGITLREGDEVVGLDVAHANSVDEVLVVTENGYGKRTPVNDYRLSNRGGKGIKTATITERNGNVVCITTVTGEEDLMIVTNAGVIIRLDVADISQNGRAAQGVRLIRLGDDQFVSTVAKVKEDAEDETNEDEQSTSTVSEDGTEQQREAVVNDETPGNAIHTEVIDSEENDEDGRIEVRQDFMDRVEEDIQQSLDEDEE
T4 sequence (P0A0K8 whole entry): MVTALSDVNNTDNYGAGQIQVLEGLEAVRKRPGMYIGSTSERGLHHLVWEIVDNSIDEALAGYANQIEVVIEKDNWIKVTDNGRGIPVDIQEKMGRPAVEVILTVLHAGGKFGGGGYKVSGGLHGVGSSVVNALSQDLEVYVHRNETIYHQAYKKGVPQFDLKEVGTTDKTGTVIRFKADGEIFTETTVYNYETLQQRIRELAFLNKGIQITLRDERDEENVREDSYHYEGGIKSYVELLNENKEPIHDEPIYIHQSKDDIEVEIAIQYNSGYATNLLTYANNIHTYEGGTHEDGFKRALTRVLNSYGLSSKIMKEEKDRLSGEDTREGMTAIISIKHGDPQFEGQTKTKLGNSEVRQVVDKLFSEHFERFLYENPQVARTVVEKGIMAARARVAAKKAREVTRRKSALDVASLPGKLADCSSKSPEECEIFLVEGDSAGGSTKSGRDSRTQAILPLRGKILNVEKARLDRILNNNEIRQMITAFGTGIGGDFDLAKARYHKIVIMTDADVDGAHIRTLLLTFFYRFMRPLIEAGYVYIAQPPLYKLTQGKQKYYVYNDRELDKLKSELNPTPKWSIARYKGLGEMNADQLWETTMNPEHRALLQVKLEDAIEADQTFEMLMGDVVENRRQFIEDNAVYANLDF
Experimental: as §1, §2, §3, §4, §16, §17, §18, §8, §19, §20, §11, §21, §22, §14, §15

SMILES	% inhibition Topo IV [1]	% inhibition Topo IV [2]	% inhibition DNA gyrase [3]	% inhibition DNA gyrase [4]
O=C(NCCCN1CCN(c2nccc3ccccc23)CC1)c1cc(F)ccc1F [Compound 39, 2,5-difluoro-N-{3-[4-(isoquinolin-1-yl)piperazin-1-yl]propyl}benzamide hydrochloride]	n/a (n/a = not active)	n/a (n/a = not active)	50%	74%
COc1ccc2c(NCCCN3CCN(c4nccc5ccccc45)CC3)cc(=O)oc2c1 [Compound 85, 4-({3-[4-(isoquinolin-1-yl)piperazin-1-yl]propyl}amino)-7-methoxy-2H-chromen-2-one hydrochloride]	n/a (n/a = not active)	n/a (n/a = not active)	78%	86%
Fc1ccc(F)c(CNCCCN2CCN(c3nccc4ccccc34)CC2)c1 [Compound 38, N-(2,5-difluorobenzyl)-3-[4-(isoquinolin-1-yl)piperazin-1-yl]propan-1-amine hydrochloride]	n/a (n/a = not active)	n/a (n/a = not active)	n/a (n/a = not active)	63%
O=C(NCCCN1CCN(c2nccc3ccccc23)CC1)c1cccnc1 [Compound 2, N-{3-[4-(isoquinolin-1-yl)piperazin-1-yl]propyl}pyridine-3-carboxamide hydrochloride]	n/a (n/a = not active)	65%	n/a (n/a = not active)	n/a (n/a = not active)
O=c1cc(NC[C@H](O)[C@@H](O)C2CCN(c3nccc4ccc(F)cc34)CC2)c2ccccc2o1 (racemic) [Compound 128, (2S,3S) and (2R,3R) 4-({3-[1-(7-fluoroisoquinolin-1-yl)piperidin-4-yl]-2,3-dihydroxypropyl}amino)-2H-chromen-2-one hydrochloride]	n/a (n/a = not active)	n/a (n/a = not active)	n/a (n/a = not active)	66%
O=c1cc(OCCCN2CCN(c3nccc4ccccc34)CC2)c2ccccc2o1 [Compound 70, 4-{3-[4-(isoquinolin-1-yl)piperazin-1-yl]propoxy}-2H-chromen-2-one hydrochloride]	n/a (n/a = not active)	n/a (n/a = not active)	86%	75%
O=c1cc(NCCCN2CCN(c3nccc4ccc(F)cc34)CC2)c2ccc(O)cc2o1 [Compound 107, 4-({3-[4-(7-fluoroisoquinolin-1-yl)piperazin-1-yl]propyl}amino)-7-hydroxy-2H-chromen-2-one hydrochloride]	n/a (n/a = not active)	n/a (n/a = not active)	92%	74%
COC(=O)C1CN(c2nccc3ccccc23)CCN1CCCNc1cc(=O)oc2ccccc12 (stereo not shown) [Compound 81, methyl 4-(isoquinolin-1-yl)-1-{3-[(2-oxo-2H-chromen-4-yl)amino]propyl}piperazine-2-carboxylate hydrochloride]	n/a (n/a = not active)	n/a (n/a = not active)	80%	n/a (n/a = not active)
Cc1c(NCCCN2CCN(c3nccc4ccc(F)cc34)CC2)c2ccccc2oc1=O [Compound 97, 4-({3-[4-(7-fluoroisoquinolin-1-yl)piperazin-1-yl]propyl}amino)-3-methyl-2H-chromen-2-one hydrochloride]	n/a (n/a = not active)	n/a (n/a = not active)	85%	86%
O=c1oc2ccccc2cc1NCCCN1CCN(c2nccc3ccccc23)CC1 [Compound 87, 3-({3-[4-(isoquinolin-1-yl)piperazin-1-yl]propyl}amino)-2H-chromen-2-one hydrochloride]	n/a (n/a = not active)	n/a (n/a = not active)	79%	96%
O=C(NCCN1CCN(c2nccc3ccccc23)CC1)c1ccccc1 [Compound 4, N-{2-[4-(isoquinolin-1-yl)piperazin-1-yl]ethyl}benzamide hydrochloride]	n/a (n/a = not active)	53%	n/a (n/a = not active)	84%
Cc1cccc2oc(=O)cc(NCCCN3CCN(c4nccc5ccc(F)cc45)CC3)c12 [Compound 96, 4-({3-[4-(7-fluoroisoquinolin-1-yl)piperazin-1-yl]propyl}amino)-5-methyl-2H-chromen-2-one hydrochloride]	n/a (n/a = not active)	n/a (n/a = not active)	88%	91%
CN(CCCN1CCN(c2nccc3ccccc23)CC1)c1cc(=O)oc2ccccc12 [Compound 53, 4-[{3-[4-(isoquinolin-1-yl)piperazin-1-yl]propyl}(methyl)amino]-2H-chromen-2-one hydrochloride]	n/a (n/a = not active)	n/a (n/a = not active)	64%	57%
O=C(NCCCN1CCN(c2nccc3ccccc23)CC1)c1cc2ccoc2cn1 [Compound 42, N-{3-[4-(isoquinolin-1-yl)piperazin-1-yl]propyl}furo[2,3-c]pyridine-5-carboxamide hydrochloride]	n/a (n/a = not active)	n/a (n/a = not active)	n/a (n/a = not active)	84%
O=c1cc(N2CCN(CCCNc3cc(=O)oc4ccccc34)CC2)c2ccccc2[nH]1 [Compound 68, 4-(4-{3-[(2-oxo-2H-chromen-4-yl)amino]propyl}piperazin-1-yl)quinolin-2(1H)-one hydrochloride]	n/a (n/a = not active)	n/a (n/a = not active)	100%	n/a (n/a = not active)
O=C(NCCCN1CCN(c2nccc3ccccc23)CC1)c1cnc2ccoc2c1 [Compound 31, N-{3-[4-(isoquinolin-1-yl)piperazin-1-yl]propyl}furo[3,2-b]pyridine-6-carboxamide hydrochloride]	n/a (n/a = not active)	n/a (n/a = not active)	n/a (n/a = not active)	65%
